The record followed here is PMC12498411, “Antidepressant-like Properties of a Selenium-Containing Pyridinium Salt Explored through In Vitro, In Vivo, and In Silico Approaches” (ACS Chemical Neuroscience, 2025).

Data set [1] addresses T1, MAO-A (Mus musculus, UniProt Q64133).
T1 construct: Mitochondria-enriched brain preparations were obtained in accordance with established methodology outlined in literature; from tissue; host or cells: mouse brain, mitochondria-enriched fraction
T1 sequence (Q64133 1-526): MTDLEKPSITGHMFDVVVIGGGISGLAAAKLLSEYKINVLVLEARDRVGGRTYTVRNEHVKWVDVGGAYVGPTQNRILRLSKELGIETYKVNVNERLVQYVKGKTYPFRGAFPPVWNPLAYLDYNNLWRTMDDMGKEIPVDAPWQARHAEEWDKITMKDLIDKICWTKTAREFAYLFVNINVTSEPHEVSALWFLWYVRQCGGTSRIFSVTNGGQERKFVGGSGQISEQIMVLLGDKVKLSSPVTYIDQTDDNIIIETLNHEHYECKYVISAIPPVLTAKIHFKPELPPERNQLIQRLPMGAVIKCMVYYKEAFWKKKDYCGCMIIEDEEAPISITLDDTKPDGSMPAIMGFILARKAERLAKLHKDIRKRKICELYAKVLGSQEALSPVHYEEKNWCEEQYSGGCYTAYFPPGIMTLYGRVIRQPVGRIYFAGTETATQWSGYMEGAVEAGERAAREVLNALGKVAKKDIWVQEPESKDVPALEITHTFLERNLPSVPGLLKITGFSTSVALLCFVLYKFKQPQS
Put plainly: Cerebral MAO-A activity, mitochondria-enriched mouse brain fraction (kynuramine, fluorimetric). It is filed as biochemical. Particulars: for Concentrations with significant inhibition of MAO-A activity: tested 25–200 μM, Dunnett vs control. As to the method:
Mitochondria-enriched brain preparations were obtained in accordance with established methodology outlined in literature. The homogenate was prepared using the mouse brain tissue and a homogenization buffer (Na2PO4/KH2PO4/sucrose) at a ratio of 1:4 (w/v). The homogenate was centrifuged at 900g at 4 °C for 5 min. The resulting supernatant was separated and subjected to centrifugation at 12,500g for 15 min. The resulting pellet was resuspended in the homogenization buffer and subjected to a further round of centrifugation under identical conditions. Finally, the mitochondrial pellet obtained was reconstituted in an assay buffer solution (Na2PO4/KH2PO4/KCl). Protein concentration was estimated using the Bradford method and standardized as 1 mg/mL for the experiments.
MAO activity was assessed following the method outlined by Krajl, with some modifications by Matsumoto. Briefly, a 100 μL aliquot of the mitochondria-rich fraction was incubated at 37 °C for 5 min with specific MAO inhibitors: clorgyline (250 nM, a MAO-A inhibitor), or pargyline (250 nM, a MAO-B inhibitor). Then, 10 μL of each compound was introduced at varying concentrations (25–200 μM). Water (10 μL) was used in the control tubes. Afterward, the substrate, 20 μL of kynuramine dihydrobromide, was added to achieve a final concentration of 90 μM for MAO-A and 60 μM for MAO-B. The samples were incubated at 37 °C for 30 min. The reaction was halted by the addition of 300 μL of 10% trichloroacetic acid (TCA). After centrifuging at 16,000g for 15 min, an aliquot of 800 μL of the supernatant was mixed with 1 mL of 1 M sodium hydroxide (NaOH). The samples were measured using a fluorimeter with excitation at 315 nm and emission at 380 nm.

For data set [2], the system named is female Swiss mice. Briefly: Acute oral toxicity, OECD Protocol 423 Acute Toxic Class Method. It is filed as in vivo, mouse. Particulars: for Food intake vs control: 50 mg/kg or 300 mg/kg; for Food intake vs control / Physical signs / Animal mortality: 14 days; for Plasma ALT activity / Plasma urea levels / Physical signs / Animal mortality: 50 and 300 mg/kg; for Physical signs / Animal mortality: gavage, female mice; for Animal mortality: single dose. The procedure: The evaluation of the acute toxicity of compounds 3A and 3B via oral administration was conducted in female Swiss mice, following the guidelines outlines in Protocol 423–OECD. The acute oral toxicity study of compound 3C was previously conducted by our research group, showing low toxicity and therefore was not evaluated here.
The animals were divided into 3 experimental groups (n = 6 mice/group) for each dosage testing: (I) Control, (II) Compound 3A, and (III) Compound 3B. Both compounds (3A and 3B) were administered at a single dose of 50 or 300 mg/kg via gavage, while control animals received water (vehicle). This high dose (300 mg/kg) was fractionated into three oral administrations of 100 mg/kg at a volume of 10 mL/kg with an interval of 30 min each. Over a period of 14 days, water and food consumption were monitored. In addition, changes in body weight and behavioral parameters such as lethargy, piloerection, and diarrhea were observed. Following this evaluation period, locomotion and exploration of the animals were assessed using the OFT. Subsequently, the animals were euthanized by an overdose of isoflurane, and blood, brain, liver, and kidney samples were collected for ex vivo analysis.
Blood plasma was used to assess liver and kidney function markers by quantifying the activity of AST and ALT, as well as urea levels, using commercially available kits (LABTEST; BIOCLIN). The brain, liver and kidneys were employed to investigate potential oxidative damage to lipids as a toxicity parameter utilizing the TBARS technique.
(§1) The aim of this behavioral test is to assess the locomotion and exploration behavior of the animals using an open field apparatus measuring 30 cm × 30 cm × 15 cm, constructed from plywood with a floor divided into nine quadrants, facilitating free movement for the animals. During the OFT, the animals were positioned in the center of the apparatus and subjected to a 5 min testing period, following the protocol outlined in literature. The number of quadrant crossings and rearings was recorded and quantified during testing phase.

The test system of data set [3] is male Swiss mice. Put plainly: Open field test (OFT) before the TST. It is filed as in vivo, mouse. The procedure: A dosage of 5 mg/kg (intragastric route, i.g., by gavage) was administered to all groups receiving the salts. […] The TST was conducted 30 min following drug administration, with the OFT being performed 4 min prior to the TST.
Following the selection of the most promising salt during screening (Compound 3B), an analysis of the compound’s time-response curve was conducted in the mouse TST. For this purpose, the animals were divided into five groups: (I) control (water; i.g.), (II) the group receiving compound 3B 15 min prior to TST, (III) the group receiving compound 3B 30 min before TST, (IV) the group receiving compound 3B 60 min before TST, and (V) the group receiving compound 3B 120 min before TST. The dosage of salt was standardized at 5 mg/kg (i.g). OFT was conducted 4 min prior to the TST.
After choosing a suitable preadministration time, the dose–response curve of the compound at this fixed time was analyzed. The animals were categorized into […]: I) a control group (administered water; i.g.) and groups II, III, IV and V) receiving compound 3B at doses of 0.5 mg/kg, 1 mg/kg, 2.5 mg/kg, and 5 mg/kg (i.g.), respectively. […] Thirty minutes postadministration, the animals underwent the TST. Four minutes prior to the TST, they underwent the OFT.
as §1

Read-outs that look alike come from different tables or passages of the source.

On to `O=C(C[n+]1ccccc1C[Se]c1ccccc1)c1ccccc1.[Br-]` [Compound 3A, 1-(2-oxo-2-phenylethyl)-2-((phenylselanyl)methyl)pyridin-1-ium bromide], for which, in data set [1], the half-inhibitory concentration (IC50) (commonly the point on the concentration scale where inhibition reaches its midpoint) was 238 µM and the “Concentrations with significant inhibition of MAO-A activity” value was at least 50 µM. In data set [2] (50 mg/kg), the “Body weight at the last measurement (last day) vs control” value is reported as “reduction in body weight”, the “Plasma AST activity” value is given as “did not affect AST activity” and the “Water consumption vs control” value is given as “decreased”. In data set [2], the “Food intake vs control” value is listed as “ate similar to the control group”, the “Plasma ALT activity” value is “remained unchanged”, the Plasma urea levels result is reported as “remained similar” and the Physical signs result is on record as “did not indicate any observable changes”. Besides, the Animal mortality result in data set [2] is listed as “no instances of animal mortality”. In addition, the “Water consumption vs control” value in data set [2] (300 mg/kg) is “no significant difference”.
Consider `Cc1ccc(C(=O)C[n+]2ccccc2C[Se]c2ccccc2)cc1` [Compound 3B, 1-(2-oxo-2-(p-tolyl)ethyl)-2-((phenylselanyl)methyl)pyridin-1-ium bromide], for which the half-maximal inhibitory concentration (IC50) in data set [1] (mouse brain mitochondria-rich fraction, 25–200 μM, kynuramine 90 μM, read-out: IC50 for MAO-A) came to 73.9 µM. The “Concentrations with significant inhibition of MAO-A activity” value in data set [1] is listed as “all concentrations tested”. In data set [2] (50 mg/kg), the “Body weight at the last measurement (last day) vs control” value is reported as “did not differ significantly”, the “Ex vivo lipid peroxidation (TBARS) in liver” value is listed as “an increase in damage was observed” and the “Plasma AST activity” value is “did not affect AST activity”. Further, in data set [2], the “Food intake vs control” value was “ate similar to the control group”, the “Plasma ALT activity” value was “remained unchanged”, the Plasma urea levels entry is “remained similar” and the Physical signs result is reported as “did not indicate any observable changes”. The Animal mortality entry in data set [2] was “no instances of animal mortality”. Moreover, in data set [2] (300 mg/kg), the “Ex vivo lipid peroxidation (TBARS) in liver” value is “not evident at the higher dose”, the “Plasma AST activity” value is “an increase was observed” and the “Water consumption vs control” value is reported as “no significant difference”. Moreover, the “OFT locomotor and exploratory activities, time-response experiment” value in data set [3] (5 mg/kg i.g., 15–120 min) is “did not affect the locomotor and exploratory activities”. Further, the “OFT number of crossings, dose–response experiment” value in data set [3] (0.5–5 mg/kg i.g.) is given as “no changes were observed”. For the same molecule, the “OFT number of rearings, dose–response experiment” value in data set [3] (3B 0.5–5 mg/kg i.g., fluoxetine 20 mg/kg i.p.) is given as “did not impact on the exploratory behavior profile”.
